{
  "source": "patent US9226913B2",
  "about": "“Methods of treating cancer using a combination of an immunomodulatory compound and an artemisinin or a derivative thereof” (Celgene Corporation, priority 2010, dated 2016)",
  "key": {"[1]": {"test_system": "A549 cells", "test": "MTT proliferation assay, 72 hr (Example 6.2)", "assay_type": "cell-based, human", "conditions": "A549, 72 h, mean ± SD of at least five experiments", "protocol": "(§1) The human cancer cell lines; MCF7 (breast), HCT116 (colon) and A549 (lung) (Cancer Research UK, London, UK), were grown in either DMEM (Sigma) or RPMI (Sigma) media supplemented with 10% foetal bovine serum, 2 mM L-glutamine, 1% penicillin/streptomycin.\n(§2) To study the effect of each agent on cell growth, cells growing exponentially were added to 96-well plates at a density of 3×10^4/well. Drugs (0.1-100 μM) were then added to the wells, ensuring an equal volume of 200 μl across the plate. Cell number was measured at 72 hr using a standard methylthiazoletetrazolium (MTT)-based assay without modifications as described previously (Gordi et al., 2004, Toxicol. Lett. 147: 99-107). Briefly, MTT (Sigma) was added to each well to give a working concentration of 0.4 mg/ml, and plates returned to the incubator for a further 1 hr. After this time, the medium was aspirated off, 200 μl of DMSO was then added to each well, and plates agitated gently for 5 min before measuring optical density at 540 nm in each well."}, "[2]": {"test_system": "HCT116^norm cells", "test": "MTT proliferation assay, 72 hr (Example 6.2)", "assay_type": "cell-based, human", "protocol": "as §1, §2"}, "[3]": {"test_system": "MCF7 cells", "test": "MTT proliferation assay, 72 hr (Example 6.2)", "assay_type": "cell-based, human", "conditions": "MCF7, 72 h, mean ± SD of at least five experiments", "protocol": "as §1, §2"}, "[4]": {"test_system": "HCT116^poly cells", "test": "MTT proliferation assay, 72 hr (Example 6.2)", "assay_type": "cell-based, human", "conditions": "HCT116^poly (polyploid extended-passage variant)", "protocol": "as §2"}, "[5]": {"test_system": "HCT116^norm cells", "conditions": "read-out: concentration required to achieve ~50% cell kill, ART and OXP used simultaneously, ART + OXP combination (ratio 1:2.5)", "excerpt": "The combination studies followed an approach previously described (Gordi et al., 2004, Toxicol. Lett. 147: 99-107). HCT116^norm, A549, MCF7 and HCT116^poly cells (5×10^4/well) growing exponentially were reset in fresh culture medium and aliquoted into 96-well plates. ART was the primary drug partner and combined with OXP at an equal ratio of their respective IC50 (eg. ½×IC50 of ART was combined with ½×IC50 of OXP). Fixing this ratio also kept constant the amount of one drug respective to the other. For instance, ART was combined with OXP at a constant ratio of 1:2.5. Cells were incubated for 72 hr in a humidified atmosphere with 5% CO2 in air at 37° C. Cell number was assessed by the MTT assay as described previously. The activities of drug combinations were established by comparing optical density readings from the treated wells with the control wells with no drug treatment, and the natures of drug-drug interactions then assessed by calculating a combination index (CI) by using the median-effect equation, where CI-values of 1 indicated additivity; CI<1 indicated synergy and CI>1 indicated antagonism."}},
  "note": "Like-named read-outs stand apart in the source and are kept apart here.",
  "data": [
    {"smiles": "O=C1[O][Pt]2([NH][C@@H]3CCCC[C@H]3[NH]2)[O]C1=O", "note": "[Oxaliplatin, oxaliplatin]", "values": [
      {"measurement": "IC50", "setting": "[1]", "value": "6.2 ± 0.95", "unit": "µM"},
      {"measurement": "IC50", "setting": "[2]; 72 h, MTT, mean ± SD of at least five experiments, listed as OXP, read-out: IC50", "value": 5.3, "unit": "µM"},
      {"measurement": "IC50", "setting": "[2]; 72 h, MTT, mean ± SD of at least five experiments, read-out: IC50", "value": "4.05 ± 1.8", "unit": "µM"},
      {"measurement": "IC50", "setting": "[2]; single agent, read-out: concentration required to achieve ~50% cell kill, used separately", "value": 4, "unit": "µM"},
      {"measurement": "IC50", "setting": "[3]", "value": "6.1 ± 1.1", "unit": "µM"},
      {"measurement": "IC50", "setting": "[4]", "value": 5.8, "unit": "µM"},
      {"measurement": "IC50", "setting": "[5]", "value": 1.6, "unit": "µM"}
    ]}
  ]
}
